Marks after values point to notes of the source that are not given here.
How the values were obtained:
[1] = Clinical chemistry and hematology in rat, 2 mpk i.v., 48 h; format: in vivo; settings: intravenous, 48 h post dose
Experimental: Sample formulations of nanoparticle compositions including different lipids were administered intravenously to rat at a dose of 2 mpk. The expression of various clinical markers was evaluated at 48 h post dose and compared to that induced by administration of MC3 formulations or phosphate buffered saline (PBS).

[2] = Chemical stability of lipids in ethanol (lipid purity); format: physicochemical
Experimental: Ester linkages were previously reported to trigger metabolism by esterases in vivo. (See Fukami, T. et al. Drug Metab. Pharmacokinet. 2012, 27, 466-477, the content of which is incorporated by reference herein in its entirety). […] (See Maier M. A., Mol. Ther. 2013, 21, 1570-1578, the content of which is incorporated herein in its entirety) First, the chemical stability of the lipids was evaluated by measuring ethanol stability at room temperature and 37° C. (Table 39). […] LNPs formed with compound 138 were larger, with a surface pKa>7. […] Removal of one ester function (compound 136) afforded LNPs with improved physiochemical characteristics and lower LNP surface pKa.

[3] = system: IP-10; assay: Cytokine induction in rats after intravenous administration; format: in vivo, rat; settings: for IP-10: rats, 2.0 mpk, 6 hours, hEPO nanoparticle compositions; for IP-10 induction: rat, 48 hours after administration
Experimental: The expression of hEPO and cytokine induction in rats intravenously administered a nanoparticle composition at a dose of 2.0 mpk was measured at 6 h.
Table 19A summarizes the hEPO expression, IP-10 induction, liver and spleen levels, and alanine aminotransferase (ALT) and aspartate aminotransferase (AST) measured upon intravenous administration of formulations including Compounds 48, 49, and 50 to rat at 0.2 and 2 mpk and hEPO mRNA. hEPO concentrations were measured 6 hours after administration, while cytokine induction and liver and spleen levels were measured 48 hours after administration. hEPO and IP-10 concentrations are presented in pg/ml, while liver levels are provided in ng/g. ALT and AST levels are presented in international units.

[4] = system: hEPO mRNA; assay: hEPO expression after intravenous administration to rats; format: in vivo, rat; settings: for Lipid/MC3 hEPO expression: 6 hours after administration; for hEPO expression / hEPO expression 0.25 h / hEPO expression 0.5 h / hEPO expression 1 h / hEPO expression 2 h / hEPO expression 4 h / hEPO expression 8 h / hEPO expression 24 h / hEPO expression 48 h: rat; for Lipid/MC3 hEPO conc. ratio 0.2 mpk / Lipid/MC3 hEPO conc. ratio 2 mpk: rats
How it was run: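 Rats dosed intravenously once with nanoparticle composition, 0.2 or 2.0 mpk, formulated by the standard MC3 method. Tail-vein blood sampled at 6 h or at time points from 0.25 to 48 h. hEPO measured by ELISA.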

[5] = Residual lipid levels in rat liver and spleen (UPLC-MS); format: in vivo; settings: for % dose remaining Rat liver tissue, 48 h: Sprague Dawley rat liver 48 h after 2 mg/kg bolus dose mRNA; for % Lipid Remaining in liver, 48 h: assuming 300 g rat and 15 g liver; for % remaining dose in liver, 48 h: 2.0 mpk
How it was run: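 Rats received a single intravenous dose of lipid nanoparticle composition, and liver tissue was later collected to quantify residual lipid. Weighed tissue was homogenized in Milli-Q water (900 μL per 100 mg tissue) using an Omni probe homogenizer. 50 μL aliquots were mixed with 400 μL spiking solution, vortexed, centrifuged, and analyzed by UPLC on a C8 column with positive-mode ESI detection on a Sciex API5500 mass spectrometer.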

[6] = Lipid clearance: lipid level in mouse liver tissue (LC-MS/MS); format: in vivo; settings: for % Dose Remaining in Liver 6 h: Table 3D
Experimental: Quantification of Lipid by LC-MS/MS: Liver samples were homogenized following addition of 19 eq. (w/v) of water (DF=20). Protein was precipitated and analyzed against calibration standards prepared in matching blank. Chromatographic separation and quantification was accomplished with a LC-MS/MS System. Samples were injected and separated via HPLC A triple-quadrupole MS/MS system operated in positive ion mode was used for signal detection.

[7] = rat, intravenous, 0.2 mpk, 48 hours, Table 19A
[8] = rat, intravenous, 2 mpk, 48 hours, Table 19A

SMILES: CCCCCCCCCCCOC(=O)CCCCCN(CCO)CCCCCCCC(=O)OC(CCCCCCCC)CCCCCCCC [Compound 25, Heptadecan-9-yl 8-((2-hydroxyethyl)(6-oxo-6-(undecyloxy)hexyl)amino)octanoate]
- Concentration Alanine aminotransferase [1]: 52
- Concentration Aspartate aminotransferase [1]: 124.5
- Concentration Lymphocytes [1]: 15924
- Concentration Monocytes [1]: 2122
- Concentration Neutrophils [1]: 1998
- Lipid Purity ([2]; t = 0): 95.58%
- Lipid Purity ([2]; t = 96 h, 25° C.): 96.23%
- Lipid Purity ([2]; t = 96 h, 37° C.): 96.13%
- IP-10 [3]: 533.5 pg/mL
- Lipid/MC3 hEPO expression ([4]; 0.2 mpk dose to rat): 2.41
- Lipid/MC3 hEPO expression ([4]; 2 mpk dose to rat): 2.13
- hEPO expression ([4]; 6 h, 2 mpk, i.v.): 3.05e+07 pg/mL
- hEPO expression 0.25 h ([4]; intravenous, 0.2 mpk): 0 pg/mL
- hEPO expression 0.5 h ([4]; intravenous, 0.2 mpk): 19553 pg/mL
- hEPO expression 1 h ([4]; intravenous, 0.2 mpk): 434299 pg/mL
- hEPO expression 2 h ([4]; intravenous, 0.2 mpk): 2042807 pg/mL
- hEPO expression 4 h ([4]; intravenous, 0.2 mpk): 3176560 pg/mL
- hEPO expression 8 h ([4]; intravenous, 0.2 mpk): 2631633 pg/mL
- hEPO expression 24 h ([4]; intravenous, 0.2 mpk): 869374 pg/mL
- hEPO expression 48 h ([4]; intravenous, 0.2 mpk): 103089 pg/mL
- Lipid/MC3 hEPO conc. ratio 0.2 mpk ([4]; intravenous, 0.2 mpk, 6 hours): 2.41
- Lipid/MC3 hEPO conc. ratio 2 mpk ([4]; intravenous, 2 mpk, 6 hours): 2.13
- % dose remaining Rat liver tissue, 48 h [5]: 1.3^e %
- % lipid remaining in liver after 48 hours ([5]; liver, 48 hours): 1.32%
- % Lipid Remaining in liver, 48 h ([5]; rats, 2 mpk): 1.32%
- % remaining dose in liver, 48 h ([5]; rats, intravenous): 1.3%

SMILES: CCCCC/C=C\C/C=C\CCCCCCCCC(CCCCCCCC/C=C\C/C=C\CCCCC)OC(=O)CCCN(C)C [MC3, DLin-MC3-DMA, reference compound]
- Concentration Alanine aminotransferase [1]: 339
- Concentration Aspartate aminotransferase [1]: 325
- Concentration Lymphocytes [1]: 19976
- Concentration Monocytes [1]: 1429
- Concentration Neutrophils [1]: 4962.5
- IP-10 induction ([3]; 0.2 mpk): 2 pg/mL
- IP-10 induction ([3]; 2 mpk): 596 pg/mL
- IP-10 [3]: 688.3 pg/mL
- % dose remaining Mouse liver tissue, 24 h ([6]; CD-1 mouse liver 24 h after 0.5 mg/kg bolus dose mRNA, n = 5 ± S.D.): 71 ± 27%
- % Dose Remaining in Liver 6 h ([6]; second column (head also says 6 h), intravenous): 54%
- % Dose Remaining in Liver 6 h ([6]; intravenous): 80%
- Mouse liver tissue level (ng/g) 6 h ([6]; Table 3E, intravenous, 6 h): 85400 ng/g
- Mouse liver tissue level (ng/g) 24 h ([6]; Table 3E, intravenous, 24 h): 67433 ng/g
- % Remaining dose at 6 h ([6]; Table 3E, mouse liver, 6 h): >98%
- % Remaining dose at 24 h ([6]; Table 3E, mouse liver, 24 h): 79.7%
- Lipid/MC3 hEPO expression ([4]; 0.2 mpk dose to rat): 1
- Lipid/MC3 hEPO expression ([4]; 2 mpk dose to rat): 1
- AUC (hEPO) ([4]; Table 19B): 3.46e+07 pg·h/mL
- [hEPO] ([4]; Table 19B, species, dose and time not given): 14800 pg/mL
- hEPO expression ([4]; 6 h, 2 mpk, i.v.): 1.33e+07 pg/mL
- hEPO expression 0.25 h ([4]; intravenous, 0.2 mpk): 0 pg/mL
- hEPO expression 0.5 h ([4]; intravenous, 0.2 mpk): 42457 pg/mL
- hEPO expression 1 h ([4]; intravenous, 0.2 mpk): 93720 pg/mL
- hEPO expression 2 h ([4]; intravenous, 0.2 mpk): 524093 pg/mL
- hEPO expression 4 h ([4]; intravenous, 0.2 mpk): 601307 pg/mL
- hEPO expression ([4]; intravenous, 0.2 mpk, 6 hours): 7.68e+06 pg/mL
- hEPO expression 8 h ([4]; intravenous, 0.2 mpk): 1536833 pg/mL
- hEPO expression 24 h ([4]; intravenous, 0.2 mpk): 703619 pg/mL
- hEPO expression 48 h ([4]; intravenous, 0.2 mpk): 64687 pg/mL
- hEPO expression ([4]; intravenous, 2 mpk, 6 hours): 9.29e+06 pg/mL
- Lipid/MC3 hEPO conc. ratio 0.2 mpk ([4]; intravenous, 0.2 mpk, 6 hours): 1
- Lipid/MC3 hEPO conc. ratio 2 mpk ([4]; intravenous, 2 mpk, 6 hours): 1
- % dose remaining Rat liver tissue, 48 h [5]: 61^e %
- % dose remaining, liver, 24 h ([5]; Table 19B, liver, 24 h): 44%
- % lipid remaining in liver after 48 hours ([5]; liver, 48 hours): 87%
- Liver level [5, 7]: 11300 ng/g
- Spleen level [5, 7]: 0.74 ng/g
- Liver level [5, 8]: 140520 ng/g
- Spleen level [5, 8]: 0.65 ng/g
- Liver level ([5]; rats, 0.2 mpk, after 48 h): 25033 ng/g
- Spleen level ([5]; rats, 0.2 mpk, after 48 h): 9440 ng/g
- % Lipid Remaining in liver, 48 h ([5]; rats, 2 mpk): 87%
- Liver level ([5]; rats, 2 mpk, after 48 h): 285333 ng/g
- Spleen level ([5]; rats, 2 mpk, after 48 h): 129000 ng/g
- lipid remained in the liver after 48 hours ([5]; rats, i.v., 0.2 mpk or 2.0 mpk): greater than 60%
- % remaining dose in liver, 48 h ([5]; rats, intravenous): 74%

— patent US12263248B2, “Compounds and compositions for intracellular delivery of therapeutic agents” (ModernaTX, Inc., priority 2018, dated 2025)
